Assay results published in ChEMBL document CHEMBL4507325 (2021).

Legend:
[1] = target: Aspartate aminotransferase, mitochondrial (Homo sapiens, UniProt P00505); assay: Aspartate transaminase assay (GOT2)
[2] = target: 5-hydroxytryptamine receptor 1A (Homo sapiens) (UniProt P08908); settings: Compound concentration 10.0 uM
[3] = target: 5-hydroxytryptamine receptor 1D (Homo sapiens) (UniProt P28221); settings: Compound concentration 10.0 uM
[4] = target: 5-hydroxytryptamine receptor 2A (Homo sapiens) (UniProt P28223); settings: Compound concentration 10.0 uM
[5] = target: 5-hydroxytryptamine receptor 2B (Homo sapiens) (UniProt P41595); settings: Compound concentration 10.0 uM
[6] = target: 5-hydroxytryptamine receptor 2C (Homo sapiens) (UniProt P28335); settings: Compound concentration 10.0 uM
[7] = target: 5-hydroxytryptamine receptor 5A (Homo sapiens) (UniProt P47898); settings: Compound concentration 10.0 uM
[8] = target: 5-hydroxytryptamine receptor 6 (Homo sapiens) (UniProt P50406); settings: Compound concentration 10.0 uM
[9] = target: Kappa-type opioid receptor (Homo sapiens) (UniProt P41145); settings: Compound concentration 10.0 uM
[10] = target: T1, GABA-A receptor; anion channel (Rattus norvegicus) (UniProt O09028+P15431+P18506+P18508+P19969+P20236+P23574+P23576+P28471+P28473+P30191+P62813+P63079+P63138+Q91ZM7+Q9ES14); settings: Compound concentration 10.0 uM
[11] = target: Histamine H4 receptor (Homo sapiens) (UniProt Q9H3N8); settings: Compound concentration 10.0 uM
[12] = target: Alpha-1A adrenergic receptor (Homo sapiens) (UniProt P35348); settings: Compound concentration 10.0 uM
[13] = target: Muscarinic acetylcholine receptor M5 (Homo sapiens) (UniProt P08912); settings: Compound concentration 10.0 uM
[14] = target: Alpha-1D adrenergic receptor (Homo sapiens) (UniProt P25100); settings: Compound concentration 10.0 uM
[15] = target: Sigma intracellular receptor 2 (Homo sapiens) (UniProt Q5BJF2); settings: Compound concentration 10.0 uM
[16] = target: Adenosine receptor A2a (Homo sapiens) (UniProt P29274); settings: Compound concentration 10.0 uM
[17] = target: Alpha-1A adrenergic receptor (Homo sapiens) (UniProt P35348); settings: Rattus norvegicus; Compound concentration 10.0 uM
[18] = target: Cannabinoid receptor 1 (Homo sapiens) (UniProt P21554); settings: Compound concentration 10.0 uM
[19] = target: D(1A) dopamine receptor (Homo sapiens) (UniProt P21728); settings: Compound concentration 10.0 uM
[20] = target: D(2) dopamine receptor (Homo sapiens) (UniProt P14416); settings: Compound concentration 10.0 uM
[21] = target: Endothelin receptor type B (Homo sapiens) (UniProt P24530); settings: Compound concentration 10.0 uM
[22] = target: Estrogen receptor (Homo sapiens) (UniProt P03372); settings: Compound concentration 10.0 uM
[23] = target: Glutamate NMDA receptor (Rattus norvegicus) (UniProt P35439+Q00959+Q00960+Q00961+Q62645+Q8VHN2+Q9R1M7); settings: Compound concentration 10.0 uM
[24] = target: Histamine H2 receptor (Homo sapiens) (UniProt P25021); settings: Compound concentration 10.0 uM
[25] = target: Muscarinic acetylcholine receptor M2 (Homo sapiens) (UniProt P08172); settings: Compound concentration 10.0 uM
[26] = target: Delta-type opioid receptor (Homo sapiens) (UniProt P41143); settings: Compound concentration 10.0 uM
[27] = target: Mu-type opioid receptor (Homo sapiens) (UniProt P35372); settings: Compound concentration 10.0 uM
[28] = target: Purinergic P2Y (Rattus norvegicus) (UniProt O35811+Q9EPX4+P49651+Q63371+P41232+O35881+Q6GUG4); settings: Compound concentration 10.0 uM
[29] = target: Beta-3 adrenergic receptor (Homo sapiens) (UniProt P13945); settings: Compound concentration 10.0 uM
[30] = target: D(2) dopamine receptor (Homo sapiens) (UniProt P14416); settings: Compound concentration 10.0 uM; remark: listed apart in the source
[31] = target: T1, GABA-A receptor; anion channel (Rattus norvegicus); settings: Compound concentration 10.0 uM; remark: listed apart in the source
[32] = target: Muscarinic acetylcholine receptor M4 (Homo sapiens) (UniProt P08173); settings: Compound concentration 10.0 uM
[33] = target: 5-hydroxytryptamine receptor 2C (Homo sapiens) (UniProt P28335); settings: Compound concentration 10.0 uM; remark: listed apart in the source
[34] = target: 5-hydroxytryptamine receptor 2A (Homo sapiens) (UniProt P28223); settings: Compound concentration 10.0 uM; remark: listed apart in the source
[35] = target: Type-1 angiotensin II receptor (Homo sapiens) (UniProt P30556); settings: Compound concentration 10.0 uM
[36] = target: Cannabinoid receptor 2 (Homo sapiens) (UniProt P34972); settings: Compound concentration 10.0 uM
[37] = target: Glutamate receptor ionotropic, kainate (Rattus norvegicus) (UniProt P22756+Q01812+P42260+P42264+Q63273); settings: Compound concentration 10.0 uM
[38] = species on record: Homo sapiens; settings: Compound concentration 10.0 uM
[39] = species on record: Oryctolagus cuniculus; settings: Compound concentration 10.0 uM
[40] = target: Growth hormone secretagogue receptor type 1 (Homo sapiens) (UniProt Q92847); settings: Compound concentration 10.0 uM
[41] = target: Motilin receptor (Homo sapiens) (UniProt O43193); settings: Compound concentration 10.0 uM
[42] = target: Progesterone receptor (Homo sapiens) (UniProt P06401); settings: Compound concentration 10.0 uM
[43] = target: Equilibrative nucleoside transporter 1/2/3/4 (Homo sapiens) (UniProt Q99808+Q7RTT9+Q14542+Q9BZD2); settings: Compound concentration 10.0 uM

5-hydroxytryptamine receptor 2A (Homo sapiens), sequence (P28223 whole entry): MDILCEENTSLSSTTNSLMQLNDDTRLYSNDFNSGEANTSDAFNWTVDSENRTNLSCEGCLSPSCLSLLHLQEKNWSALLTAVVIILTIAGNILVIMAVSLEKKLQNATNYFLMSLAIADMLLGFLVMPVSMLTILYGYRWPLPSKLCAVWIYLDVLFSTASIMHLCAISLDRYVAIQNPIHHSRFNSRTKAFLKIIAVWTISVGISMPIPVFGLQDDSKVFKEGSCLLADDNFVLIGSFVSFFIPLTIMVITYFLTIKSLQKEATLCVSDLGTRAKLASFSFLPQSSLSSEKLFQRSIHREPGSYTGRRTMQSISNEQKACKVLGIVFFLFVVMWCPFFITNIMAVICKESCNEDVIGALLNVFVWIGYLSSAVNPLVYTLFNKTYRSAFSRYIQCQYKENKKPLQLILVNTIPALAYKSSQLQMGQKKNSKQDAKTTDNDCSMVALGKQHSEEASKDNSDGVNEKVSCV
5-hydroxytryptamine receptor 2C (Homo sapiens), sequence (P28335 whole entry): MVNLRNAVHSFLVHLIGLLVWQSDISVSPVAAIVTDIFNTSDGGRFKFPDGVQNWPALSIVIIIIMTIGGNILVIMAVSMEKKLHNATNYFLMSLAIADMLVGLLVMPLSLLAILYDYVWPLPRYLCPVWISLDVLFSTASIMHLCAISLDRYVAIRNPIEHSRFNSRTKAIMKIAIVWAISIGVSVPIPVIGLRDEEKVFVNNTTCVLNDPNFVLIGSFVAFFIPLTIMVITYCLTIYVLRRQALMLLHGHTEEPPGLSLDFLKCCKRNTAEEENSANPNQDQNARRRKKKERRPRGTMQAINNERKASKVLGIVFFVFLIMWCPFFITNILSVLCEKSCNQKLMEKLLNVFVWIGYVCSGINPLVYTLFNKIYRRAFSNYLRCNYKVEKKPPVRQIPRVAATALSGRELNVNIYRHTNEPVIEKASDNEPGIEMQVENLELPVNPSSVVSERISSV
Alpha-1A adrenergic receptor (Homo sapiens), sequence (P35348 whole entry): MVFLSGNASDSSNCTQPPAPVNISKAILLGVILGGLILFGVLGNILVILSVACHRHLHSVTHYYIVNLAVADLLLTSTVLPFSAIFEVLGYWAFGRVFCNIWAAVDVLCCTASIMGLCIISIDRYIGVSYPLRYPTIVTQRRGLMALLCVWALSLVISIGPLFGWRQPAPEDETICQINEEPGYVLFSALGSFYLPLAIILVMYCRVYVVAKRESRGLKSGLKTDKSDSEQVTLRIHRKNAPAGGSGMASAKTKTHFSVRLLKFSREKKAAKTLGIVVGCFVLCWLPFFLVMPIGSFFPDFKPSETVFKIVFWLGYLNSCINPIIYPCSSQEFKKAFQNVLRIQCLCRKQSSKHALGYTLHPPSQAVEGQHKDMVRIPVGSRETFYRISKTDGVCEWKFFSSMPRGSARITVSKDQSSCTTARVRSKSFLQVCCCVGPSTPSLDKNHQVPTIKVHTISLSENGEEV
D(2) dopamine receptor (Homo sapiens), sequence (P14416 whole entry): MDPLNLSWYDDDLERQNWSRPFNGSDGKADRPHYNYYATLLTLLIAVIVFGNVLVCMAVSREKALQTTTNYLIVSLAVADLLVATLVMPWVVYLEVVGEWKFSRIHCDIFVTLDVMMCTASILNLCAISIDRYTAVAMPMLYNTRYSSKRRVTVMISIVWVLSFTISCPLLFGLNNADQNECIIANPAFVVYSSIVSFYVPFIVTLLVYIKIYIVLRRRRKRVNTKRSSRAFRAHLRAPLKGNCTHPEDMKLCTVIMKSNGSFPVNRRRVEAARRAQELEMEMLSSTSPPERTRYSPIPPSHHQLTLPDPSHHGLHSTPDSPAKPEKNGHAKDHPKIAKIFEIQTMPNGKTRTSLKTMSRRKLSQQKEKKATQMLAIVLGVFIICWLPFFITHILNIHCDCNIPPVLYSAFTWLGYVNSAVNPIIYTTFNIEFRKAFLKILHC
Alpha-1D adrenergic receptor (Homo sapiens), sequence (P25100 whole entry): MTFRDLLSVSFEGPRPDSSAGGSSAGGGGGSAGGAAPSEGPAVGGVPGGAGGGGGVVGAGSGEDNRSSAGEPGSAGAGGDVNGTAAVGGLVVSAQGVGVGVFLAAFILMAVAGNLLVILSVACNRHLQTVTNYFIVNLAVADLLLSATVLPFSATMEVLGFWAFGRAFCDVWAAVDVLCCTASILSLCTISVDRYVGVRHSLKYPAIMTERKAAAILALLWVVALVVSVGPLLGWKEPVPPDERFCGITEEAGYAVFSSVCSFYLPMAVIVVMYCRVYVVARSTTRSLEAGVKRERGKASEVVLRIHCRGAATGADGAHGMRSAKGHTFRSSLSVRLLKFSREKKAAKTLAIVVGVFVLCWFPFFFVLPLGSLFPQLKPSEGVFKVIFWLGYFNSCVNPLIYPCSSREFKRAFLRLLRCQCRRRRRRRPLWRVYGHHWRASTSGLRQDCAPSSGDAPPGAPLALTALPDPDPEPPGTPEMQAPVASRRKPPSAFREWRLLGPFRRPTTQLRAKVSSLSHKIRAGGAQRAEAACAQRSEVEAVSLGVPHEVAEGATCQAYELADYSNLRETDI
Beta-3 adrenergic receptor (Homo sapiens), sequence (P13945 whole entry, looked up): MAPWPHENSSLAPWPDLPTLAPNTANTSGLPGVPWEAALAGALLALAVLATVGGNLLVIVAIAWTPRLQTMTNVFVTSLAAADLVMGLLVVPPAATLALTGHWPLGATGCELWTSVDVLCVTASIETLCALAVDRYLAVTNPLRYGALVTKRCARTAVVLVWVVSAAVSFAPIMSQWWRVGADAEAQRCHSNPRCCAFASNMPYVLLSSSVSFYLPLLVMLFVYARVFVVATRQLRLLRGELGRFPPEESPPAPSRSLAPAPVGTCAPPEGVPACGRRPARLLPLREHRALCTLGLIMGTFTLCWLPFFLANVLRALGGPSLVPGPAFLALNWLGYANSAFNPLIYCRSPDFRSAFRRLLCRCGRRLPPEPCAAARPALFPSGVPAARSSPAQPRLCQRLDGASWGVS
5-hydroxytryptamine receptor 1A (Homo sapiens), sequence (P08908 whole entry): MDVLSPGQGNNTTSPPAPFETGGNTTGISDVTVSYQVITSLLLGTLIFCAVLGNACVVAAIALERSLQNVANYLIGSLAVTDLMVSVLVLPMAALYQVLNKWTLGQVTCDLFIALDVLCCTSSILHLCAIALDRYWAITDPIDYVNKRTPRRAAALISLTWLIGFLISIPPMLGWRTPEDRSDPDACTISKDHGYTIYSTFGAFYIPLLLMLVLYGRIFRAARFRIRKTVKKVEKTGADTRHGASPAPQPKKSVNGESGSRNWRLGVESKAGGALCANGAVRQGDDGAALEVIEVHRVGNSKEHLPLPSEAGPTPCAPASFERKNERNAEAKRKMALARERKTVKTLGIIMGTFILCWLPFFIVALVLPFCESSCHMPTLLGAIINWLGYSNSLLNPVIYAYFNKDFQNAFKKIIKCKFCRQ
Mu-type opioid receptor (Homo sapiens), sequence (P35372 whole entry): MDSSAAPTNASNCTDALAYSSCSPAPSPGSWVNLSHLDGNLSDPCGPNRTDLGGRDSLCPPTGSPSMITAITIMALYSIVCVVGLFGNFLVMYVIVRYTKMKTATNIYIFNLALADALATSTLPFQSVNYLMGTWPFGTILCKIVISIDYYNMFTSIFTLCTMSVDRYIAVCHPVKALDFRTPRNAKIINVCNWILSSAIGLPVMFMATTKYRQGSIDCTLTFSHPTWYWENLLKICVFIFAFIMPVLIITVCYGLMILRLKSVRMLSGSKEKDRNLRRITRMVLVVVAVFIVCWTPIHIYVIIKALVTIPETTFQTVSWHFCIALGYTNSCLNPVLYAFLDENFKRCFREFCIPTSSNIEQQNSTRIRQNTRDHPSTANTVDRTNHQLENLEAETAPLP
Muscarinic acetylcholine receptor M4 (Homo sapiens), sequence (P08173 whole entry): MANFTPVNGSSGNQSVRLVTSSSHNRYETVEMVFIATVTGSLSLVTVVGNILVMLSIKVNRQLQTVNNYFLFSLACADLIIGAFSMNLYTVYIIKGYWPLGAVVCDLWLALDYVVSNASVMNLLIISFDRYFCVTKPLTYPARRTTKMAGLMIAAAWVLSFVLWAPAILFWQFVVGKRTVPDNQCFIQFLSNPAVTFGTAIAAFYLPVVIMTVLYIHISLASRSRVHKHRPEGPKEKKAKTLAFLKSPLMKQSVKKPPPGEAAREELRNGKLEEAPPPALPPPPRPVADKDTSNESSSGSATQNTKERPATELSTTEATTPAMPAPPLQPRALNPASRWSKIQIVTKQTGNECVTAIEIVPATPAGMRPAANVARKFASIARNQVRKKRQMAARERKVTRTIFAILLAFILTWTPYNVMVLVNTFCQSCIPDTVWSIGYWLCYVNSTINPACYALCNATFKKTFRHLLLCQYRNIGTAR
Kappa-type opioid receptor (Homo sapiens), sequence (P41145 whole entry): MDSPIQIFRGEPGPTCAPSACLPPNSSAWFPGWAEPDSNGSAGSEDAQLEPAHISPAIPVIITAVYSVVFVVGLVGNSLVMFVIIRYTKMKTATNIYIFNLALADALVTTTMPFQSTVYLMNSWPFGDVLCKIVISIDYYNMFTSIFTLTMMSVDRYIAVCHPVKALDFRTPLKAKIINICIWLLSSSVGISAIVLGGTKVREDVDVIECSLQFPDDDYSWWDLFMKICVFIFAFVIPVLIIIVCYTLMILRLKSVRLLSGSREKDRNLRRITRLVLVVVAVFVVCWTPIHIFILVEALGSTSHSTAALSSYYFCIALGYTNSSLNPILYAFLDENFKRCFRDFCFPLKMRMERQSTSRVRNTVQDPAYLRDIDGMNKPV
5-hydroxytryptamine receptor 6 (Homo sapiens), sequence (P50406 whole entry): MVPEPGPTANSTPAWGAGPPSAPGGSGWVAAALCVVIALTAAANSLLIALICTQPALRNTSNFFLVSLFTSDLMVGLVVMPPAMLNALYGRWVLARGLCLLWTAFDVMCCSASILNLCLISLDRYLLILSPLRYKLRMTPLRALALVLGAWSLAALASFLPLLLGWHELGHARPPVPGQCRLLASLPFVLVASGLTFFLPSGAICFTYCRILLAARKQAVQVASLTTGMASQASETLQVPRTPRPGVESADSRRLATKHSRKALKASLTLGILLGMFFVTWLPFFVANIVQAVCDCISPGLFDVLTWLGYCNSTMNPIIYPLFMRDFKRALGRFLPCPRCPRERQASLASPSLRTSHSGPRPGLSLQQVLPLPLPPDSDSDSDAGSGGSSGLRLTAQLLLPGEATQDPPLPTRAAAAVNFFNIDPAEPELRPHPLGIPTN

With `Cc1ccccc1Oc1cc(-n2c(=O)cc(C(F)(F)F)[nH]c2=O)c2ccccc2c1Cl` [BAY-069] the IC50 [1] was > 50 µM (not active), the inhibition [2] was 8.88% and the inhibition [3] was 0.75%. For the same compound, the inhibition [4] was -2.88%, the inhibition [5] was -0.49% and the inhibition [6] was 0.89%. It also gave an inhibition [7] of 5.61%, an inhibition [8] of 13% and an inhibition [9] of 37.5%. For the same compound, the inhibition [10] was 11.3%, the inhibition [11] was -6.41% and the inhibition [12] was -2.81%. For the same compound, the inhibition [13] was -5.66%, the inhibition [14] was -5.48% and the inhibition [15] was -7.5%. For the same compound, the inhibition [16] was -6%, the inhibition [17] was 5% and the inhibition [18] was 16%. It also gave an inhibition [19] of 7%, an inhibition [20] of -5% and an inhibition [21] of -9%. The inhibition [22] was 6%, the inhibition [23] was -2% and the inhibition [24] was -2%. It also gave an inhibition [25] of 4%, an inhibition [26] of -3% and an inhibition [27] of 0%. The inhibition [28] was -4%, the inhibition [29] was 15% and the inhibition [30] was -5%. For the same compound, the inhibition [31] was 15%, the inhibition [32] was -5% and the inhibition [33] was 3%. For the same compound, the inhibition [34] was 1%, the inhibition [35] was 7% and the inhibition [36] was -5%. For the same compound, the inhibition [37] was -4%, the inhibition [38] was -8% and the inhibition [39] was 11%. The inhibition [40] was 1%, the inhibition [41] was 4% and the inhibition [42] was -4%. For the same compound, the inhibition [43] was 28%.
